In patent publication US20230085307A1, “PYRIDAZINONE COMPOUND AND HERBICIDE” (NISSAN CHEMICAL CORPORATION, priority 2019, published 2023):

Legend:
lambsquarters = experiment: Test Example 5: herbicidal effect by foliage application, plastic box (Table 20, symbol O); format: in vivo, lambsquarters (Chenopodium album); settings: foliage application; for effect on lambsquarters (O): 3 weeks after application
Summary of the method: (§1)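 Plants sown in sterilized diluvial soil and grown 14 days in a greenhouse at 25° C to 30° C, then sprayed on the foliage with the compound's emulsion diluted in water to a predetermined herbicide amount. Injury to weeds and crops scored three weeks after application on a visual rating scale.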

green foxtail [1] = experiment: Test Example 5: herbicidal effect by foliage application, plastic box (Table 20, symbol G); format: in vivo, green foxtail (Setaria viridis); settings: foliage application; for effect on green foxtail (G): 3 weeks after application
Summary of the method: as §1

southern crabgrass = experiment: Test Example 4: herbicidal effect by soil treatment (Table 19, symbol F); format: in vivo, southern crabgrass (Digitaria ciliaris)
Summary of the method: (§2)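 Three weeks of greenhouse growth at 25° C. to 30° C. followed a uniform surface spray of water-diluted emulsion at a predetermined herbicide amount. Seeds had been sown beforehand under about 1.5 cm of sterilized diluvial soil. Grading followed criteria set out in an earlier test.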

wild oat = experiment: Test Example 4: herbicidal effect by soil treatment (Table 19, symbol I); format: in vivo, wild oat (Avena fatua)
Summary of the method: as §2

persian speedwell = experiment: Test Example 5: herbicidal effect by foliage application, plastic box (Table 20, symbol R); format: in vivo, Persian speedwell (Veronica persica); settings: foliage application; for effect on persian speedwell (R): 3 weeks after application
Summary of the method: as §1

oval-leafed pondweed = experiment: Test Example 2: herbicidal activity, application during weed generation under submerged conditions (Table 17, symbol C); format: in vivo, oval-leafed pondweed (Monochoria vaginalis); settings: application during weed generation, submerged conditions
Summary of the method: (§3)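 In this pot test, flooded alluvial soil (water depth 4 cm) holds all three species sown as a mixture. Once seedlings have one to two leaves, the compound's emulsion, thinned with water to the intended dose, is poured on the water; grading follows after three weeks on the earlier criteria.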

Japanese bulrush = experiment: Test Example 2: herbicidal activity, application during weed generation under submerged conditions (Table 17, symbol B); format: in vivo, Japanese bulrush (Schoenoplectus juncoides); settings: application during weed generation, submerged conditions
Summary of the method: as §3

velvetleaf = experiment: Test Example 4: herbicidal effect by soil treatment (Table 19, symbol M); format: in vivo, velvetleaf (Abutilon theophrasti)
Summary of the method: as §2

redroot pigweed = experiment: Test Example 4: herbicidal effect by soil treatment (Table 19, symbol N); format: in vivo, redroot pigweed (Amaranthus retroflexus)
Summary of the method: as §2

Italian ryegrass = experiment: Test Example 5: herbicidal effect by foliage application, plastic box (Table 20, symbol K); format: in vivo, Italian ryegrass (Lolium multiflorum); settings: foliage application; for effect on Italian ryegrass (K): 3 weeks after application
Summary of the method: as §1

green foxtail [2] = experiment: Test Example 4: herbicidal effect by soil treatment (Table 19, symbol G); format: in vivo, green foxtail (Setaria viridis)
Summary of the method: as §2

blackgrass = experiment: Test Example 4: herbicidal effect by soil treatment (Table 19, symbol J); format: in vivo, blackgrass (Alopecurus myosuroides)
Summary of the method: as §2

late watergrass = experiment: Test Example 2: herbicidal activity, application during weed generation under submerged conditions (Table 17, symbol A); format: in vivo, late watergrass (Echinochloa oryzicola); settings: application during weed generation, submerged conditions
Summary of the method: as §3

barnyard grass = experiment: Test Example 4: herbicidal effect by soil treatment (Table 19, symbol H); format: in vivo, barnyard grass (Echinochloa crus-galli)
Summary of the method: as §2

false cleavers [3] = experiment: Test Example 5: herbicidal effect by foliage application, plastic box (Table 20, symbol Q); format: in vivo, false cleavers (Galium spurium); settings: foliage application; for effect on false cleavers (Q): 3 weeks after application
Summary of the method: as §1

false cleavers [4] = experiment: Test Example 4: herbicidal effect by soil treatment (Table 19, symbol Q); format: in vivo, false cleavers (Galium spurium)
Summary of the method: as §2

[5] = 320 g/ha, evaluated three weeks after application
[6] = AAH 320 g/ha, evaluated three weeks after application
[7] = amount of applied herbicide 320 g/ha

CCCC(=O)Oc1c(C)nn(C)c(=O)c1-c1c(-c2ccccc2OCC)sc2ccc(F)cc12 [2-029]
effect on lambsquarters (O) (lambsquarters; 266 g/ha): 3 (Herbicidal rate of 40% or more and less than 70%) | effect on green foxtail (G) (green foxtail [1]; 266 g/ha): 4 (Herbicidal rate of 70% or more and less than 90%) | herbicidal effect rating, F: southern crabgrass (southern crabgrass; 266 g/ha): 3 (Herbicidal rate of 40% or more and less than 70%) | herbicidal effect rating, I: wild oat (wild oat; 266 g/ha): 3 (Herbicidal rate of 40% or more and less than 70%) | effect on persian speedwell (R) (persian speedwell; 266 g/ha): 5 (Herbicidal rate of 90% or more (almost completely withered)) | herbicidal effect rating, C: oval-leafed pondweed (oval-leafed pondweed; AAH 266 g/ha): 3 (Herbicidal rate of 40% or more and less than 70%) | herbicidal effect rating, B: Japanese bulrush (Japanese bulrush; AAH 266 g/ha): 2 (Herbicidal rate of 20% or more and less than 40%) | herbicidal effect rating, M: velvetleaf (velvetleaf; 266 g/ha): 0 (Herbicidal rate of 5% or less (almost no effect)) | herbicidal effect rating, N: redroot pigweed (redroot pigweed; 266 g/ha): 4 (Herbicidal rate of 70% or more and less than 90%) | effect on Italian ryegrass (K) (Italian ryegrass; 266 g/ha): 2 (Herbicidal rate of 20% or more and less than 40%) | herbicidal effect rating, G: green foxtail (green foxtail [2]; 266 g/ha): 3 (Herbicidal rate of 40% or more and less than 70%) | herbicidal effect rating, J: blackgrass (blackgrass; 266 g/ha): 0 (Herbicidal rate of 5% or less (almost no effect)) | herbicidal effect rating, A: late watergrass (late watergrass; AAH 266 g/ha): 3 (Herbicidal rate of 40% or more and less than 70%) | herbicidal effect rating, H: barnyard grass (barnyard grass; 266 g/ha): 3 (Herbicidal rate of 40% or more and less than 70%) | effect on false cleavers (Q) (false cleavers [3]; 266 g/ha): 4 (Herbicidal rate of 70% or more and less than 90%) | herbicidal effect rating, Q: false cleavers (false cleavers [4]; 266 g/ha): 3 (Herbicidal rate of 40% or more and less than 70%)

Cc1nn(C)c(=O)c(-c2c(-c3ccc(OC(C)C)cc3)sc3ccc(F)cc23)c1O [2-034]
effect on lambsquarters (O) (lambsquarters; 320 g/ha): 5 (Herbicidal rate of 90% or more (almost completely withered)) | effect on green foxtail (G) (green foxtail [1]; 320 g/ha): 5 (Herbicidal rate of 90% or more (almost completely withered)) | herbicidal effect rating, F: southern crabgrass (southern crabgrass; 320 g/ha): 5 (Herbicidal rate of 90% or more (almost completely withered)) | herbicidal effect rating, I: wild oat (wild oat; 320 g/ha): 0 (Herbicidal rate of 5% or less (almost no effect)) | effect on persian speedwell (R) (persian speedwell; 320 g/ha): 5 (Herbicidal rate of 90% or more (almost completely withered)) | herbicidal effect rating, C: oval-leafed pondweed (oval-leafed pondweed; AAH 320 g/ha): 3 (Herbicidal rate of 40% or more and less than 70%) | herbicidal effect rating, B: Japanese bulrush (Japanese bulrush; AAH 320 g/ha): 3 (Herbicidal rate of 40% or more and less than 70%) | herbicidal effect rating, M: velvetleaf (velvetleaf; 320 g/ha): 4 (Herbicidal rate of 70% or more and less than 90%) | herbicidal effect rating, N: redroot pigweed (redroot pigweed; 320 g/ha): 5 (Herbicidal rate of 90% or more (almost completely withered)) | effect on Italian ryegrass (K) (Italian ryegrass; 320 g/ha): 5 (Herbicidal rate of 90% or more (almost completely withered)) | herbicidal effect rating, G: green foxtail (green foxtail [2]; 320 g/ha): 4 (Herbicidal rate of 70% or more and less than 90%) | herbicidal effect rating, J: blackgrass (blackgrass; 320 g/ha): 1 (Herbicidal rate of 5% or more and less than 20%) | herbicidal effect rating, A: late watergrass (late watergrass; AAH 320 g/ha): 1 (Herbicidal rate of 5% or more and less than 20%) | herbicidal effect rating, H: barnyard grass (barnyard grass; 320 g/ha): 2 (Herbicidal rate of 20% or more and less than 40%) | effect on false cleavers (Q) (false cleavers [3]; 320 g/ha): 4 (Herbicidal rate of 70% or more and less than 90%) | herbicidal effect rating, Q: false cleavers (false cleavers [4]; 320 g/ha): 0 (Herbicidal rate of 5% or less (almost no effect))

CCCC(=O)Oc1c(C)nn(C)c(=O)c1-c1c(-c2ccc(F)cc2OCC)sc2ccc(F)cc12 [2-085]
herbicidal effect on O: lambsquarters (lambsquarters; [5]): 3 (Herbicidal rate of 40% or more and less than 70%) | herbicidal effect on G: green foxtail (green foxtail [1]; [5]): 3 (Herbicidal rate of 40% or more and less than 70%) | herbicidal effect rating, F: southern crabgrass (southern crabgrass; 320 g/ha): 4 (Herbicidal rate of 70% or more and less than 90%) | herbicidal effect rating, I: wild oat (wild oat; 320 g/ha): 2 (Herbicidal rate of 20% or more and less than 40%) | herbicidal effect on R: persian speedwell (persian speedwell; [5]): 4 (Herbicidal rate of 70% or more and less than 90%) | herbicidal effect rating, C: oval-leafed pondweed (oval-leafed pondweed; AAH 320 g/ha): 3 (Herbicidal rate of 40% or more and less than 70%) | herbicidal effect rating, B: Japanese bulrush (Japanese bulrush; AAH 320 g/ha): 3 (Herbicidal rate of 40% or more and less than 70%) | herbicidal effect rating, M: velvetleaf (velvetleaf; 320 g/ha): 0 (Herbicidal rate of 5% or less (almost no effect)) | herbicidal effect rating, N: redroot pigweed (redroot pigweed; 320 g/ha): 5 (Herbicidal rate of 90% or more (almost completely withered)) | herbicidal effect on K: Italian ryegrass (Italian ryegrass; [5]): 3 (Herbicidal rate of 40% or more and less than 70%) | herbicidal effect rating, G: green foxtail (green foxtail [2]; 320 g/ha): 3 (Herbicidal rate of 40% or more and less than 70%) | herbicidal effect rating, J: blackgrass (blackgrass; 320 g/ha): 0 (Herbicidal rate of 5% or less (almost no effect)) | herbicidal effect rating, A: late watergrass (late watergrass; AAH 320 g/ha): 2 (Herbicidal rate of 20% or more and less than 40%) | herbicidal effect rating, H: barnyard grass (barnyard grass; 320 g/ha): 3 (Herbicidal rate of 40% or more and less than 70%) | herbicidal effect on Q: false cleavers (false cleavers [3]; [5]): 5 (Herbicidal rate of 90% or more (almost completely withered)) | herbicidal effect rating, Q: false cleavers (false cleavers [4]; 320 g/ha): 4 (Herbicidal rate of 70% or more and less than 90%)

COCC(=O)Oc1c(C)nn(C)c(=O)c1-c1c(-c2ccc(OC(F)F)cc2)sc2ccc(F)cc12 [2-283]
O: lambsquarters, herbicidal effect (criteria 0-5) (lambsquarters; [6]): 5 (Herbicidal rate of 90% or more (almost completely withered)) | G: green foxtail, herbicidal effect (criteria 0-5) (green foxtail [1]; [6]): 5 (Herbicidal rate of 90% or more (almost completely withered)) | herbicidal effect on F: southern crabgrass (southern crabgrass; [7]): 5 (Herbicidal rate of 90% or more (almost completely withered)) | herbicidal effect on I: wild oat (wild oat; [7]): 0 (Herbicidal rate of 5% or less (almost no effect)) | R: persian speedwell, herbicidal effect (criteria 0-5) (persian speedwell; [6]): 5 (Herbicidal rate of 90% or more (almost completely withered)) | herbicidal effect rating, C: oval-leafed pondweed (oval-leafed pondweed; AAH 320 g/ha): 4 (Herbicidal rate of 70% or more and less than 90%) | herbicidal effect rating, B: Japanese bulrush (Japanese bulrush; AAH 320 g/ha): 3 (Herbicidal rate of 40% or more and less than 70%) | herbicidal effect on M: velvetleaf (velvetleaf; [7]): 5 (Herbicidal rate of 90% or more (almost completely withered)) | herbicidal effect on N: redroot pigweed (redroot pigweed; [7]): 5 (Herbicidal rate of 90% or more (almost completely withered)) | K: Italian ryegrass, herbicidal effect (criteria 0-5) (Italian ryegrass; [6]): 5 (Herbicidal rate of 90% or more (almost completely withered)) | herbicidal effect on G: green foxtail (green foxtail [2]; [7]): 5 (Herbicidal rate of 90% or more (almost completely withered)) | herbicidal effect on J: blackgrass (blackgrass; [7]): 3 (Herbicidal rate of 40% or more and less than 70%) | herbicidal effect rating, A: late watergrass (late watergrass; AAH 320 g/ha): 5 (Herbicidal rate of 90% or more (almost completely withered)) | herbicidal effect on H: barnyard grass (barnyard grass; [7]): 5 (Herbicidal rate of 90% or more (almost completely withered)) | Q: false cleavers, herbicidal effect (criteria 0-5) (false cleavers [3]; [6]): 5 (Herbicidal rate of 90% or more (almost completely withered)) | herbicidal effect on Q: false cleavers (false cleavers [4]; [7]): 0 (Herbicidal rate of 5% or less (almost no effect))
